Assay results taken from patent US20170029841A1, “METHODS AND COMPOSITIONS FOR SELECTIVE REGULATION OF PROTEIN EXPRESSION” (priority 2015, published 2017).

System: maize tissue pools (tassel, ear, leaf, root, stem)
Experiment: siRNA profiling microarray assay of mts-siRNA sequences across maize tissues
Conditions: for 01DKD2 V8-V9 Tassel relative signal value: germplasm 01DKD2, V8-V9 tassel; for 01DKD2 V10-V12 Tassel relative signal value: germplasm 01DKD2, V10-V12 tassel; for 01DKD2 Other Tissue relative signal value: germplasm 01DKD2, combined signals from other tissue; for LH244 V8-V9 Tassel relative signal value: germplasm LH244, V8-V9 tassel; for LH244 V10-V12 Tassel relative signal value: germplasm LH244, V10-V12 tassel; for LH244 Other Tissue relative signal value: germplasm LH244, combined signals from other tissue
Procedure: A siRNA profiling microarray assay was performed using μParaflo® Microfluidics chips provided by LC Sciences LLC (Houston, Tex., USA) with 1,200 sequences selected from the thousands of mts-siRNA sequences identified from the differential bioinformatic analysis. The microarray chips contained triplicate probes of the complementary sequence for each of the 1,200 mts-siRNA sequences. Total RNA was purified from 26 maize tissue pools (duplicate or triplicate tissue pools) from either LH244 (ATCC deposit number PTA-1173) or 01DKD2 (I294213) (ATCC deposit number PTA-7859) inbred plants. Each of the 26 RNA samples were hybridized with the microarray chips that contain probes for the 1,200 mts-siRNA. Hybridization images were collected using a GenePix® 4000B laser scanner (Molecular Devices, Sunnyvale, Calif.) and digitized using Array-Pro® Analyzer image analysis software (Media Cybernetics, Rockville, Md.). Relative signal values were derived by background subtraction and normalization. Differentially expressed signals were determined by t-test with p<0.05. From the microarray analysis, about 500 mts-siRNA from the 1,200 were identified as being highly tassel-specific.
Selected mts-siRNA sequences aligning to one of the six cDNA sequences were used for further microarray analysis to determine differential expression across maize tissues. Microarray analysis for mts-siRNA sequences of normalized signal values for V8-V9 tassel, V10-V12 tassel, or combined signals from the other tissue for maize germplasm LH244 and 01DKD2 is presented in Tables 3-10. […] Signal value results are measured as relative signal values and standard error (p<0.05) is represented by (STDR). […] The mts-siRNA sequence corresponds to the sense or antisense strand of the corresponding mts-siRNA target sequence in the cDNA sequence. The mts-siRNA sequence may have a single nucleotide, a two nucleotide, or a three nucleotide mismatch with the aligned portion of the cDNA sequence, and the mts-siRNA sequence may align to the sense strand or antisense strand of the cDNA sequence. The mts-siRNA sequences provided here are found across different maize germplasms.

| Substance | 01DKD2 V8-V9 Tassel relative signal value | 01DKD2 V10-V12 Tassel relative signal value | 01DKD2 Other Tissue relative signal value | LH244 V8-V9 Tassel relative signal value | LH244 V10-V12 Tassel relative signal value | LH244 Other Tissue relative signal value |
| --- | --- | --- | --- | --- | --- | --- |
| SEQ ID NO: 23: mts-siRNA sequence aligning to cDNA SEQ ID NO: 17 (CATCACCATGCACGGTCGTCGT; expressed or natural sequence) | 27 | 318 | 4.3 | 183.5 | 514 | 2.6 |
| SEQ ID NO: 24: mts-siRNA sequence aligning to cDNA SEQ ID NO: 17 (ATCACCATGCACGGTCGT; expressed or natural sequence) | 16 | 174 | 3 | 104.5 | 322 | 7.7 |
| SEQ ID NO: 25: mts-siRNA sequence aligning to cDNA SEQ ID NO: 17 (ACGACCGTGCATGGTGAT; expressed or natural sequence) | 56 | 440 | 2.3 | 289 | 824.3 | 2.6 |
| SEQ ID NO: 26: mts-siRNA sequence aligning to cDNA SEQ ID NO: 17 (CGCATGTCACATCGCCGTCCTC; expressed or natural sequence) | 10 | 104 | 3.8 | 55.5 | 175.7 | 3.8 |
| SEQ ID NO: 27: mts-siRNA sequence aligning to cDNA SEQ ID NO: 17 (CGGACATTTGCAGTTCTATGGT; expressed or natural sequence) | 73 | 405.5 | 1 | 377.5 | 581.7 | 1.1 |
| SEQ ID NO: 28: mts-siRNA sequence aligning to cDNA SEQ ID NO: 17 (GACATTTGCAGTTCTATGGTGT; expressed or natural sequence) | 29 | 134.5 | 3.8 | 126.5 | 248 | 2.4 |
| SEQ ID NO: 29: mts-siRNA sequence aligning to cDNA SEQ ID NO: 17 (CCGTGCATGGTGATGAATCC; expressed or natural sequence) | 86 | 535.5 | 4 | 292.5 | 886.7 | 2.2 |
| SEQ ID NO: 30: mts-siRNA sequence aligning to cDNA SEQ ID NO: 17 (CACCATGCACGGTCGTCGT; expressed or natural sequence) | 32 | 282 | 6.5 | 173.5 | 495.7 | 4.2 |
| SEQ ID NO: 31: mts-siRNA sequence aligning to cDNA SEQ ID NO: 17 (ACACGCATGTCACATCGCCGTC; expressed or natural sequence) | 0 | 26.5 | 2.8 | 8 | 49 | 1.2 |
| SEQ ID NO: 32: mts-siRNA sequence aligning to cDNA SEQ ID NO: 18 (TAGCCACACGGTCACGTTTGGAC; expressed or natural sequence) | 7.5 | 516 | 2.8 | 376.5 | 118 | 2 |
| SEQ ID NO: 33: mts-siRNA sequence aligning to cDNA SEQ ID NO: 18 (AGGGTGAATCGGATGTTGAGGTGG; expressed or natural sequence) | 4.5 | 648.5 | 2.8 | 111.5 | 1032.7 | 17.8 |
| SEQ ID NO: 34: mts-siRNA sequence aligning to cDNA SEQ ID NO: 18 (ACGTGCATATCGCCATCCTCTGCT; expressed or natural sequence) | 8.5 | 982 | 3.5 | 848.5 | 572.7 | 3 |
| SEQ ID NO: 35: mts-siRNA sequence aligning to cDNA SEQ ID NO: 18 (TAGCCACACGGTCACGTTTGGACG; expressed or natural sequence) | 4 | 519 | 2.8 | 437 | 117.7 | 1.6 |
| SEQ ID NO: 36: mts-siRNA sequence aligning to cDNA SEQ ID NO: 18 (CGTGCATATCGCCATCCTCTGCT; expressed or natural sequence) | 15.5 | 1225.5 | 4.3 | 906.5 | 606.7 | 2.2 |
| SEQ ID NO: 37: mts-siRNA sequence aligning to cDNA SEQ ID NO: 18 (CAGAGGATGGCGATATGCACGTTG; expressed or natural sequence) | 9.5 | 1224.5 | 3.3 | 554 | 553 | 1.5 |
| SEQ ID NO: 38: mts-siRNA sequence aligning to cDNA SEQ ID NO: 18 (CTCAACATCCGATTCACCCTCA; expressed or natural sequence) | 8.5 | 1305.5 | 3 | 768.5 | 1442.7 | 1.4 |
| SEQ ID NO: 39: mts-siRNA sequence aligning to cDNA SEQ ID NO: 18 (CATCGACCAATGACATTCCCTC; expressed or natural sequence) | 16 | 1514.5 | 1.5 | 442.5 | 2157.3 | 0.6 |
